Results taken from patent publication US6020373A, “Chelate derivatives as protectors against tissue injury” (Eastern Virginia Medical School, priority 1997, dated 2000).
Entries after “also recorded” stand apart in the source; their conditions may differ.

How the values were obtained:
[1] = in vivo; conditions: mouse, in vivo, ip
Protocol: (§1) For all biological studies, the substances were dissolved in water and brought to pH 7. […] Preliminary determination of the approximate toxicity level of the substances was by intraperitoneal (IP) injection of increasing doses into individual Swiss-Webster female mice until toxicity was evident. The maximum tolerated dose was the highest dose given without evident toxic symptoms such as coma, convulsions, or death. The LD 50 (IP) was determined by using at least three doses in 12 mice at each level, bracketing the approximate LD 50. The mice were followed for at least one week and examined for weight changes, general condition, and behavior. The LD 50 with lower and upper confidene iits was calculated from the data.

[2] = test system: radiation damage of right hind leg; assay: Radioprotection in mice: radiation damage scores of the irradiated right hind leg; conditions: for Av score (average radiation damage score, day 15-20): 6 mice per group; for effectiveness as radioprotectant: IP, mice, limb irradiation 30-40 Gy; for Av Score (average radiation damage score, day 12-24): 30 Gy to right limb, 12 mice per group, IP mmole/kg: IDA 16.7, EDTA 8.6, MPEG 17.9, MIDA 10.3, MPEDTA 7.7, saline 1.54
Protocol: The effect of PEG derivatives on tissue tolerance to radiation was tested. Groups of 6 or 12 female Swiss-Webster mice were given IP solutions of the derivatives at a dose of approxfimately one-half of the LD50. Ten minutes later, pentobarbital (PB) 0.262 mmole/kg was given IP, and twenty minutes after the first injection, the right hind leg only was irradiated with 30, 35 or 40 Gy using the Philips RT-250 unit operated under the following conditions: 200 kVp, 20 mA, 0.2 mm Cu added filtration, HVL 0.57 mm Cu, dose rate of 1.834 Gy/min. Mice were irradiated in groups of 6 or 12, and their legs were arranged within a 20×24 cm aperture cone at a 50 cm target-to-skin distance such that all their legs were within a 95% isodose. The output of the X-ray unit was calibrated using a Capintec PT-06C Farmer chamber. Controls received only PB and 0.4 ml normal saline in place of the drug.
The mice were examed daily by two independent observers for 24 days, and the limbs were scored for radiation damage graded on a scale of 0 to 3.5 according to criteria previously established (Fowler, et al., Int. J. Rad. Biol., 9:241-252, 1964). Briefly, a score of 1 corresponds to definite reddening of the foot compared to normal and a score of 2 is marked moist desquamation, loss of hair and skin, and sticking together of toes.

[3] = test system: blood urea nitrogen levels (BUN); assay: Effect on renal toxicity of doxorubicin (blood urea nitrogen); conditions: 27 days, FIG. 3; for prevention of doxorubicin-induced BUN increase: 7 mmole/kg IP one hour before 25 mg/kg doxorubicin into tail vein
[4] = in vivo; cited from earlier work
[5] = test system: tissue injury, such as myocardial ischemia-reperfusion injury; conditions: in vivo; cited from earlier work
[6] = test system: Mice; assay: in vivo; conditions: IP, mice; for LD50: 12 mice at each level, LL and UL confidence limits in own columns; for MTD (maximum tolerated dose): highest dose without evident toxic symptoms such as coma, convulsions, or death
Protocol: as §1

[7] = test system: B16F1 malignant melanoma; assay: Effect on doxorubicin-caused tumor growth lag; format: in vivo, C57Bl/6 mice; conditions: IP 30 minutes before doxorubicin 15 mg/kg IP; FIG. 4
Protocol: For this assay, the B16F1 malignant melanoma which grows in isologous C57Bl/6 mice was used. […] When the tumors reached an average of 6-8 mm diameter, they were placed in closely matched groups of 12 with similar average size tumors. The groups were injected intraperitoneally with either saline or MPEDTA, followed 30 minutes later by doxorubicin 15 mg/kg IP or saline. Tumor volumes were assessed by daily caliper measreients m two orthogonal planes. Tumor length is defined as the diameter in the plane parallel to the body, while width is defined as the diameter perpendicular to the body. Diameter product (in mm^2) was used as the index of tumor growth. The tumor areas were averaged and plotted vs. time to show growth delay as a function of the various treatments. When the average area reached […], the mice were killed by cervical dislocation. The results are in FIG. 4. The solid circles indicate the groups receiving saline-saline or MPEDTA-saline, the solid squares indicate the group receiving saline-doxorubicin, and the solid triangles indicate the group receiving MPEDTA-doxorubicin.

[8] = 40 Gy, IP mmole/kg: EDTAE, DTPA ester, MPDTE 1.0, MPEDTAE 2.0, MPEDTA 8.0, saline 2.93
[9] = 35 Gy, IP mmole/kg: EDTA, DTPA, MPEDTA, MPDTP 8.0, EDTAE 1.0, MPEDTAE, MPDTE 2.0, saline 2.36

In the case of `COC(=O)CN(CCN(CC(=O)OC)CC(=O)OC)CCN(CC(=O)OC)CC(=O)OC` [DTPA methyl ester], the MTD [1] is reported as 1000 µmol/kg, the “Av score (average radiation damage score, day 15-20)” value [2, 8] is reported as 2.50 and the effectiveness as radioprotectant [2] is reported as “not effective”.
With `O=C(O)CN(CCN(CC(=O)O)CC(=O)O)CCN(CC(=O)O)CC(=O)O` [DTPA, diethylene triamine pentaacetic acid] the MTD [1] was 8000 µmol/kg, the “Av score (average radiation damage score, day 15-20)” value [2, 9] was 1.34 and the effectiveness as radioprotectant [2] was “slightly effective; also recorded: moderately effective”.
In the case of `COc1cccc2c1C(=O)c1c(O)c3c(c(O)c1C2=O)C[C@@](O)(C(=O)CO)C[C@@H]3O[C@H]1C[C@H](N)[C@H](O)[C@H](C)O1` [Doxorubicin, doxorubicin], the “BUN compared with the untreated control group” value ([3]; 25 mg/kg doxorubicin into tail vein) is reported as “markedly increased BUN”.
For `O=C(O)CN(CCN(CC(=O)O)CC(=O)O)CC(=O)O` [EDTA, ethylene-diamine tetraacetic acid], the MTD [1] was 8000 µmol/kg and the “prevention of doxorubicin-induced BUN increase” value [3] was “not”.
With `O=C(O)CNCC(=O)O` [IDA, iminodiacetate] the LD50 [1] was 33100 µmol/kg, the MTD [1] was 17000 µmol/kg and the “Av Score (average radiation damage score, day 12-24)” value [2] was 1.19.
For `CC(=O)N(O)CCCCCNC(=O)CCC(=O)N(O)CCCCCNC(=O)CCC(=O)N(O)CCCCCN` [deferoxamine (DEF), deferoxamine], the “excretion / circulation lifetime” value [4] is listed as “rapid excretion” and the “effectiveness in reducing tissue injury” value [5] is listed as “some effectiveness in reducing tissue injury”.
For “Methoxypolyethlene Glycol Amide with EDTA [MPEDTA]”, the LD50 [6] was 12.5 mmol/kg, the “MTD (maximum tolerated dose)” value [6] was 8 mmol/kg and the “effect on tumoricidal effect of / tumor growth lag produced by doxorubicin” value [7] was “clearly did not interfere with the tumoricidal effect of doxorubicin; also recorded: lack of effect”. The “Av Score (average radiation damage score, day 12-24)” value [2] was 0.24, the “Av score (average radiation damage score, day 15-20)” value [2, 9] was 1.50 and the “Av score (average radiation damage score, day 15-20)” value [2, 8] was 1.67. The effectiveness as radioprotectant [2] was “extremely effective; also recorded: very effective in reducing or preventing damage from radiation or doxorubicin” and the “prevention of doxorubicin-induced BUN increase” value [3] was “completely prevented”.
For “Methoxypolyethyene Glycol Amide with DTPA. Calcium Sodium Salt [MPDTP]”, the “Av score (average radiation damage score, day 15-20)” value [2, 9] was 1.21.
In the case of “Methoxypolyethylene Glycol Iminodiacetate [MIDA]”, the LD50 [6] is reported as 20.6 mmol/kg, the “MTD (maximum tolerated dose)” value [6] is reported as 8 mmol/kg and the “Av Score (average radiation damage score, day 12-24)” value [2] is reported as 0.67. For the same compound, the effectiveness as radioprotectant [2] was “moderately effective” and the “ANOVA comparison of average scores between groups” value ([2]; average radiation damage scores, Tables II and III) was “little difference”.
With Metyl Ester of MPEDTA [MPEDTAE] the “Av score (average radiation damage score, day 15-20)” value [2, 9] was 0.88, the “Av score (average radiation damage score, day 15-20)” value [2, 8] was 1.45 and the effectiveness as radioprotectant [2] was “also effective in protection from tissue injury”.
